Measurements published in patent US9670204B2, “Compounds and pharmaceutical compositions thereof for the treatment of inflammatory disorders” (Galapagos NV, priority 2013, dated 2017).

Assays:
hENPP2 [1] = target: T1, hENPP2 (UniProtKB/SwissProt Q13822) (Homo sapiens (Human), UniProt Q13822); test: fluorescent hENPP2 biochemical assay, FS-3 as substrate; conditions: read-out: FS3-IC50
Method in brief: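 hENPP2 in 50 mM Tris-HCl pH 8.0, 250 mM NaCl, 5 mM KCl, 1 mM MgCl2, 1 mM CaCl2, 0.1% fatty-acid-free BSA, preincubated with compound 30 min at room temperature. The 0.75 μM FS-3 solution was added and the mixture incubated 30 min at 30° C. Fluorescence (ex 485/em 520 nm) gives IC50.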

hENPP2 [2] = target: T1, hENPP2; test: hENPP2 biochemical assay, LPC as substrate; conditions: LPC (palmitoyl 16:0) as substrate
Method in brief: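 Human ENPP2 in 50 mM Tris-HCl pH 8.5, 500 mM NaCl, 5 mM KCl, 10 mM CaCl2, 0.1% fatty-acid-free BSA, reacted 30 min at 37 °C with LPC 16:0 (150 µM solution added 1:1). Released choline measured via choline oxidase/peroxidase/TOOS/4-aminoantipyrine quinoneimine dye at 555 nm; IC50 reported.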

Row | SMILES | IC50 (hENPP2 [1]) | IC50 (hENPP2 [2])
1 | CCc1nc2ccc(C3CCN(S(C)(=O)=O)CC3)cn2c1N(C)c1nc(-c2ccc(F)cc2)c(C)s1 [Compound 101, N-(2-ethyl-6-(1-(methylsulfonyl)piperidin-4-yl)imidazo [1,2-a]pyridin-3-yl)-4-(4-fluorophenyl)-N,5-dimethylthiazol-2-amine] | 0.01 to 100 nM | > 1000 nM
2 | [2H]c1sc(N(c2c(CC)nc3ccc(C4CCN(S(C)(=O)=O)CC4)cn23)C([2H])([2H])[2H])nc1-c1ccc(F)cc1 [Compound 103, 4-(4-fluorophenyl)-N-(2-ethyl-6-(1-(methylsulfonyl)piperidin-4-yl)imidazo [1,2-a]pyridin-3-yl)-N-(d3-methyl)-(d-thiazol-2)-amine] | 0.01 to 100 nM | 100 to 500 nM
3 | CCc1nc2ccc(C3CCN(S(C)(=O)=O)CC3)cn2c1N(C)c1nc(-c2ccc(F)cc2)c(C(C)=O)s1 [Compound 105, 1-(2-((2-ethyl-6-(1-(methylsulfonyl)piperidin-4-yl)imidazo[1,2-a]pyridin-3-yl)(methyl)amino)-4-(4-fluorophenyl)thiazol-5-yl)ethanone] | 0.01 to 100 nM | 100 to 500 nM
4 | CCOC(=O)CN1CC=C(c2ccc3nc(CC)c(N(C)c4nc(-c5ccc(F)cc5)cs4)n3c2)CC1 [Compound 108, ethyl 2-(4-(2-ethyl-3-((4-(4-fluorophenyl)thiazol-2-yl)(methyl)amino)imidazo[1,2-a]pyridin-6-yl)-5,6-dihydropyridin-1(2H)-yl)acetate] | 0.01 to 100 nM | > 1000 nM
5 | CCc1nc2ccc(C3CCN(CC4COC(=O)O4)CC3)cn2c1N(C)c1nc(-c2ccc(F)cc2)cs1 (centres unmarked) [Compound 118, 4-((4-(2-ethyl-3-((4-(4-fluorophenyl)thiazol-2-yl)(methyl)amino)imidazo[1,2-a]pyridin-6-yl)piperidin-1-yl)methyl)-1,3-dioxolan-2-one] | 0.01 to 100 nM | 100 to 500 nM
6 | CCc1nc2ccc(C3CCN(CC(=O)N4CC(F)(F)C4)CC3)cn2c1N(C)c1nc(-c2ccc(F)cc2)cs1 [Compound 124, 1-(3,3-difluoroazetidin-1-yl)-2-(4-(2-ethyl-3-((4-(4-fluorophenyl)thiazol-2-yl)(methyl)amino)imidazo[1,2-a]pyridin-6-yl)piperidin-1-yl)ethanone] | 0.01 to 100 nM | > 1000 nM
7 | CCc1nc2ccc(C3CCN(C(=O)CN4CC(O)C4)CC3)cn2c1N(C)c1nc(-c2ccc(F)cc2)cs1 [Compound 128, 1-(4-(2-ethyl-3-((4-(4-fluorophenyl)thiazol-2-yl)(methyl)amino)imidazo[1,2-a]pyridin-6-yl)piperidin-1-yl)-2-(3-hydroxyazetidin-1-yl)ethanone] | 0.01 to 100 nM | 100 to 500 nM
8 | CCc1nc2ccc(C3CCN(C(=O)CN4CC(F)C4)CC3)cn2c1N(C)c1nc(-c2ccc(F)cc2)cs1 [Compound 133, 1-(4-(2-ethyl-3-((4-(4-fluorophenyl)thiazol-2-yl)(methyl)amino)imidazo[1,2-a]pyridin-6-yl)piperidin-1-yl)-2-(3-fluoroazetidin-1-yl)ethanone] | 0.01 to 100 nM | 100 to 500 nM
9 | CCc1nc2ccc(C3CCN(C4CN(C(C)=O)C4)CC3)cn2c1N(C)c1nc(-c2ccc(F)cc2)cs1 [Compound 134, 1-(3-(4-(2-ethyl-3-((4-(4-fluorophenyl)thiazol-2-yl)(methyl)amino)imidazo[1,2-a]pyridin-6-yl)piperidin-1-yl)azetidin-1-yl)ethanone] | 0.01 to 100 nM | 500 to 1000 nM
10 | CCc1nc2ccc(C3CCN(S(C)(=O)=O)CC3)cn2c1N(C)c1nc(-c2ccc(F)cc2)c(C(N)=O)s1 [Compound 137, 2-((2-ethyl-6-(1-(methylsulfonyl)piperidin-4-yl)imidazo[1,2-a]pyridin-3-yl)(methyl)amino)-4-(4-fluorophenyl)thiazole-5-carboxamide] | 0.01 to 100 nM | > 1000 nM

Now from value to molecule:

Row | IC50 (hENPP2 [1]) | IC50 (hENPP2 [2]) | SMILES
11 | 0.01 to 100 nM | > 1000 nM | CCc1nc2ccc(C3CCN(S(C)(=O)=O)CC3)cn2c1N(C)c1nc(-c2ccc(F)cc2F)cs1 [Compound 100, 4-(2,4-difluorophenyl)-N-(2-ethyl-6-(1-(methylsulfonyl)piperidin-4-yl)imidazo [1,2-a]pyridin-3-yl)-N-methylthiazol-2-amine]
12 | 0.01 to 100 nM | > 1000 nM | CCc1nc2ccc(C3CCN(S(C)(=O)=O)CC3)cn2c1N(C)c1nc(-c2ccc(F)cc2NC(C)=O)cs1 [Compound 106, N-(2-(2-((2-ethyl-6-(1-(methylsulfonyl)piperidin-4-yl)imidazo[1,2-a]pyridin-3-yl)(methyl)amino)thiazol-4-yl)-5-fluorophenyl)acetamide]
13 | 0.01 to 100 nM | 100 to 500 nM | CCOC(=O)CN1CCC(c2ccc3nc(CC)c(N(C)c4nc(-c5ccc(F)cc5)cs4)n3c2)CC1 [Compound 109, ethyl 2-(4-(2-ethyl-3-((4-(4-fluorophenyl)thiazol-2-yl)(methyl)amino)imidazo[1,2-a]pyridin-6-yl)piperidin-1-yl)acetate]
14 | 0.01 to 100 nM | 100 to 500 nM | CCc1nc2ccc(C3CCN(CC(=O)N4CC[C@H](C#N)C4)CC3)cn2c1N(C)c1nc(-c2ccc(F)cc2)cs1 [Compound 116, (S)-1-(2-(4-(2-ethyl-3-((4-(4-fluorophenyl)thiazol-2-yl)(methyl)amino)imidazol[1,2-a]pyridin-6-yl)piperidin-1-yl)acetoyl)pyrrolidine-3-carbonitrile]
15 | 0.01 to 100 nM | > 1000 nM | CCc1nc2ccc(C3CCN(CC(N)=O)CC3)cn2c1N(C)c1nc(-c2ccc(F)cc2)cs1 [Compound 125, 2-(4-(2-ethyl-3-((4-(4-fluorophenyl)thiazol-2-yl)(methyl)amino)imidazo[1,2-a]pyridin-6-yl)piperidin-1-yl)acetamide]
16 | 0.01 to 100 nM | 100 to 500 nM | CCc1nc2ccc(C3CCN(C(=O)CN4CCCC4)CC3)cn2c1N(C)c1nc(-c2ccc(F)cc2)cs1 [Compound 126, 1-(4-(2-ethyl-3-((4-(4-fluorophenyl)thiazol-2-yl)(methyl)amino)imidazo[1,2-a]pyridin-6-yl)piperidin-1-yl)-2-(pyrrolidin-1-yl) ethanone]
17 | 0.01 to 100 nM | > 1000 nM | CCc1nc2ccc(C3CCN(CC(=O)N(C)C)CC3)cn2c1N(C)c1nc(-c2ccc(F)cc2)c(CO)s1 [Compound 157, 2-(4-(2-ethyl-3-((4-(4-fluorophenyl)-5-(hydroxymethyl)thiazol-2-yl)(methyl)amino)imidazo[1,2-a]pyridin-6-yl)piperidin-1-yl)-N,N-dimethylacetamide]
18 | 0.01 to 100 nM | 100 to 500 nM | CCc1nc2ccc(N3CCN(CC(=O)N(C)C)CC3)cn2c1N(C)c1nc(-c2ccc(F)cc2)c(C(=O)C(F)(F)F)s1 [Compound 158, 2-(4-(2-ethyl-3-((4-(4-fluorophenyl)-5-(2,2,2-trifluoroacetoyl)thiazol-2-yl)(methyl)amino)imidazo[1,2-a]pyridin-6-yl)piperazin-1-yl)-N,N-dimethylacetamide]
19 | 0.01 to 100 nM | 0.01 to 100 nM | CCc1nc2ccc(N3CCN(CC(=O)N(C)C)CC3)cn2c1N(C)c1nc(-c2ccc(F)cc2C#N)cs1 [Compound 168, 2-(4-(3-((4-(2-cyano-4-fluorophenyl)thiazol-2-yl)(methyl)amino)-2-ethylimidazo[1,2-a]pyridin-6-yl)piperazin-1-yl)-N,N-dimethylacetamide]
